Reference: patent US7235539B2, “6-Hydroxyequilenins as estrogenic agents” (Wyeth, priority 2002, dated 2007)

Legend:
human ERβ = molecular target: T1, human ERβ (Homo sapiens, UniProt Q92731); experiment: Radioligand binding competition with [3H]-17β-estradiol, ERβ; details: human ERβ ligand binding domain extract, read-out: ER-β IC50
T1 construct: M214–Q530 of human ERβ; Flag (C); made in house; host or cells: E. coli BL21(DE3), clarified lysate

human ERα = molecular target: T2, human ERα (Homo sapiens, UniProt P03372); experiment: Radioligand binding competition with [3H]-17β-estradiol, ERα; details: human ERα ligand binding domain extract, read-out: ER-α IC50
T2 construct: amino acids M250–V595 of human ERα; His tag (N); made in house; host or cells: E. coli BL21(DE3), clarified lysate
T2 sequence (P03372 250-595): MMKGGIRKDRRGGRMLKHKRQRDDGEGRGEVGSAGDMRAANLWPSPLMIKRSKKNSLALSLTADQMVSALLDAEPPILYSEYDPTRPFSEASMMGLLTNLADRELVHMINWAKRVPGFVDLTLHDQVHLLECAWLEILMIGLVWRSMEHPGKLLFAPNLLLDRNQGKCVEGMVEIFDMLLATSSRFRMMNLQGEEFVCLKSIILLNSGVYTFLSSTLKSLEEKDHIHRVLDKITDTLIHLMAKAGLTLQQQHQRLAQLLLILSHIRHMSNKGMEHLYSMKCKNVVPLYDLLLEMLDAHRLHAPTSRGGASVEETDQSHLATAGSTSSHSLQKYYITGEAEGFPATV

[1] = system: metallothionein-II mRNA in Saos-2 cells (via ERβ); experiment: Regulation of metallothionein II mRNA in Saos-2 cells; format: cell-based
From the text: Estrogens acting through ERβ, but not ERα can upregulate metallothionein II mRNA levels in Saos-2 cells as described by Harris [Endocrinology 142: 645–652 (2001)]. Results from this test procedure can be combined with results from the test procedure described below (ERE reporter test procedure) to generate a selectivity profile for compounds of this invention (see also WO 00/37681).

T1 sequence (Q92731 214-530): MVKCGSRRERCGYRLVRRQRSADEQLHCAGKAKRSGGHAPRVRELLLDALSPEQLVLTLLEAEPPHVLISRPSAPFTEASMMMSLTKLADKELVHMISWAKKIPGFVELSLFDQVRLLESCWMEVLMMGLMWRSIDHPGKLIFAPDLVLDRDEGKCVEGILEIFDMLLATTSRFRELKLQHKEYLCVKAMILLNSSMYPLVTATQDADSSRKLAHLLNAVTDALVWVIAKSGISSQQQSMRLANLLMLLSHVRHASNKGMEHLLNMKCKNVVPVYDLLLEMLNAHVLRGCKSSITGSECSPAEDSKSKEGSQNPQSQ

Structure (SMILES) | IC50 (human ERβ) [nM] | IC50 (human ERα) [nM] | Fold upregulation of metallothionein-II mRNA [1]
CC12CCc3c(cc(O)c4cc(O)ccc34)C1CC[C@@H]2O (stereo partly drawn) [Compound 5, 6-Hydroxy-3,17β-dihydroequilenin] | 16 | 238 | 11
CC12CCc3c(cc(O)c4cc(O)ccc34)C1CCC2=O (stereo not drawn) [Compound 1, 6-Hydroxyequilenin] | 123 | 2180 | 11
